This is an account of results in paper PMC8617627, “Novel DYRK1A Inhibitor Rescues Learning and Memory Deficits in a Mouse Model of Down Syndrome” (Pharmaceuticals, 2021).

Several values for one entry are separate records, joined by “and”; a condition that tells them apart may be missing. Identical values can stand only once.

One data set concerns 139-protein kinase panel. As to the kind of experiment: Selectivity on protein kinase panel (GINI-index). The conditions noted are these: in words.
Data set [1] can be described thus: Mouse microsome stability assay. Format: in vitro ADME. As to conditions: microsomes.
In a further data set the test system is Ts65Dn mice. Description: Contextual fear conditioning. Format: in vivo. How it is done: The capacity for contextual memory of 10- to 16-week old Ts65Dn mice was compared with age-matched euploid control mice using a fear conditioning protocol. Briefly, the mice were exposed for 3 min to the context test chamber serving as a conditioning stimulus, followed by an electric shock for 2 s representing the unconditioned stimulus. […] Freezing, defined as a species-specific defensive reaction characterized by lack of movement besides respiration and heartbeat, associated with crouching posture, was used as a measure of learning, and assessed for 180 s, every 9 s by two trained observers […] of the mouse genotypes and the pharmacological agent being used.
The capacity for contextual memory of 10- to 16-week-old Ts65Dn mice was compared with age-matched euploid control mice using the same fear conditioning protocol used in a previous work with the drug memantine. Briefly, the mice were exposed for 3 min to the context (Med Associates, St. Albans, VT, Modular Mouse Test Chamber) serving as a conditioning stimulus, followed by an electric shock (2 s, 0.7 mA, constant electric current) representing the unconditioned stimulus. […] Freezing, defined as a species-specific defensive reaction characterized by lack of movement besides respiration and heartbeat, associated with crouching posture, was used as a measure of learning, and assessed for 180 s, every 9 s by two trained observers […] of the mouse genotypes and the pharmacological agent being used. The mean number of observations indicating freezing behavior was expressed as percentage of freezing in relation to the total number of observations. All experiments were video-recorded, for automated video-analysis, confirmation of the trained-observer scores, and archival purposes.
In addition, the mice continued to consume these same food preparations during the two days necessary to perform the behavioral testing.

Data set [2] can be described thus: Mouse IV pharmacokinetics (plasma and brain). As to conditions: for half-life: read-out: t½ (converted). The format is in vivo. The procedure:
In the mouse model, the PK-parameters were also determined in the brain samples. […] Samples are prepared by protein precipitation and/or dilution: tissues are homogenized first. Analysis is carried out using a generic internal standard, with matrix-matched calibration standards bracketing the study samples.
(§1) Samples were analyzed by high resolution accurate mass UHPLC-TOF MS. […] The mass spectrometer was operated in full scan mode, with positive ion electrospray data acquired over the m/z mass range 100–1000.

A short description of data set [3]: Steady state tissue levels after administration in animal food. Format: in vivo, mouse. An excerpt:
The highest dose provided a continuous concentration of 1.25 μmol/g both in the liver and in the brain and was used in fear conditioning experiments.
Six control euploid mice of the same genetic background as the Ts65Dn mice were used to perform this analysis; two mice per dose and three doses tested.
Prior to contextual fear conditioning experiments, all mice were exposed for three-days to either food mixture alone or food mixture with added PST-001. In addition, the mice continued to consume these same food preparations during the two days necessary to perform the behavioral testing. […] Comparisons between group means were done with Two-way factorial ANOVA, and Fisher protected least significant difference (PLSD) post hoc test was performed for all significant ANOVA (using Statistica version 13, Tibco Software, Palo Alto, CA, USA).

Data set [4] in a line: Mouse PO pharmacokinetics (plasma and brain). Format: in vivo. The conditions noted are these: for Tmax: po. How it is done: For determining plasma and brain pharmacokinetics blood samples (via cardiac puncture into heparinized tubes and centrifuged for plasma at 4 °C) and brains were terminally sampled at 0.25, 0.5, 1, 2, 3, 4, 6, and 8 h timepoints post dosing. Three animals per timepoint were sampled. The three animals designated for the 8 h timepoint were housed in a metabolism cage post-dosing for collection of urine. All samples were stored at −20 °C pending analysis. Bioanalysis was carried out by UHPLC-TOF mass spectrometry using electrospray ionization against matrix matched calibration lines.
The pharmacokinetic parameters were subsequently calculated by noncompartmental methods.
Samples are prepared by protein precipitation and/or dilution: tissues are homogenized first. Analysis is carried out using a generic internal standard, with matrix-matched calibration standards bracketing the study samples.
as §1

Another data set is described as follows: Rat IV pharmacokinetics. The format is in vivo. The conditions noted are these: plasma. How it is done: For determining plasma pharmacokinetics blood samples (via cardiac puncture into heparinized tubes and centrifuged for plasma at 4 °C) were serially sampled via jugular vein at […], 0.5, 5, 15, and 30 min, 1, 2, 4, 8, and 24 h timepoints post dosing. Three animals per timepoint were sampled. All samples were stored at −20 °C pending analysis. Bioanalysis was carried out by UHPLC-TOF mass spectrometry using electrospray ionization against matrix matched calibration lines. The pharmacokinetic parameters were subsequently calculated by noncompartmental methods. Samples are prepared by protein precipitation and/or dilution: tissues are homogenized first. Analysis is carried out using a generic internal standard, with matrix-matched calibration standards bracketing the study samples. Samples were analyzed by high resolution accurate mass UHPLC-TOF MS. […] The mass spectrometer was operated in full scan mode, with positive ion electrospray data acquired over the m/z mass range 100–1000.

[5] abbreviates: male, Sprague-Dawley, IV 1 mg/kg.

Method for 139-protein kinase panel: The determination of protein kinase inhibition was performed at the International Centre for Kinase Profiling at the University of Dundee, UK. The method used is a radioactive filter binding assay using ^33P ATP as described in the literature [79]. The ATP concentrations were at or below the calculated Km for ATP for each particular kinase.

On to `COc1ccc2sc(-c3cncc(N)c3)nc2c1` [compound 1, 5-(5-Methoxybenzo[d]thiazol-2-yl)pyridin-3-amine], for which, in the data set with 139-protein kinase panel, the “Selectivity in the protein kinase panel” value was “high selectivity towards DYRK1A”.

By Cmax is commonly meant the peak of the concentration-time curve. Broadly, the Vd is a proportionality between amount in the body and measured concentration, not a real space. As usually defined, the clearance is a measure of how efficiently the substance is removed, as volume per time. Regarding `COc1ccc2sc(-c3cncc(NC(C)=O)c3)nc2c1` [PST-001, N-(5-(5-Methoxybenzo[d]thiazol-2-yl)pyridin-3-yl)acetamide], the half-life is 25 min in data set [1] (read-out: half-life (t½)); 9 min in data set [2] (C57Bl, IV 1 mg/kg, brain); 9 min in data set [2] (C57Bl, IV 1 mg/kg, plasma); 16.2 min in data set [4] (male, C57BL/6, mouse, PO 5 mg/kg, brain, read-out: t½ (converted)); less than 60 min in the data set “Rat IV pharmacokinetics” (Sprague-Dawley (rat), C57BL/6 (mouse), intravenous, oral, mouse or rat, IV or PO, read-out: t1/2 in plasma); 43.2 min in the data set “Rat IV pharmacokinetics” (male, Sprague-Dawley, iv, 1 mg/kg, IV 1 mg/kg, read-out: t½ (converted)). For the same compound, in “Rat IV pharmacokinetics” (male, Sprague-Dawley, iv, 1 mg/kg, IV bolus 1 mg/kg, circulation, read-out: t½ (converted)), the half-life was 43 min. Also, the microsomal CLint in data set [1] (read-out: intrinsic clearance, Cint) amounted to 55 µL/min/mg. The “Learning and memory deficits (freezing in context test)” value in the data set with Ts65Dn mice (Ts65Dn mice, PST-001 in the food) is “completely eliminated the learning and memory deficits”. Also, the Tolerability entry in the data set on Ts65Dn mice (Ts65Dn mice, chronic oral administration) is “well tolerated”. Moreover, the “Percentage of freezing behavior” value with Ts65Dn mice (control euploid mice, PST-001 in the food) is recorded as “no detectable effects”. For the same compound, the Cmax worked out at 867 ng/mL in data set [2] (C57Bl, IV 1 mg/kg, brain); 362 ng/mL in data set [2] (C57Bl, IV 1 mg/kg, plasma); 153 ng/mL in data set [4] (male, C57BL/6, mouse, PO 5 mg/kg, brain); 76 ng/mL in data set [4] (male, C57BL/6, mouse, PO 5 mg/kg, plasma); 647 ng/mL in “Rat IV pharmacokinetics” (setting [5]). Further, the Tmax was 4.8 min in data set [2] (C57Bl, IV 1 mg/kg, brain); 4.8 min in data set [2] (C57Bl, IV 1 mg/kg, plasma); 15 min in data set [4] (male, C57BL/6, mouse, brain, 5 mg/kg, mouse, PO 5 mg/kg); 15 min in data set [4] (male, C57BL/6, mouse, plasma, 5 mg/kg, PO administration); 60 min in data set [4] (male, C57BL/6, mouse, plasma, 5 mg/kg, mouse, PO 5 mg/kg); 1.8 min in the data set “Rat IV pharmacokinetics” (male, Sprague-Dawley, iv, 1 mg/kg, IV 1 mg/kg, read-out: Tmax). Moreover, the Tmax in “Rat IV pharmacokinetics” (male, Sprague-Dawley, iv, 1 mg/kg, IV bolus 1 mg/kg, read-out: Time of maximum venous concentration (Tmax) (converted)) was 2 min. Besides, the Vd was found to be 1.39 L/kg in data set [2] (C57Bl, IV 1 mg/kg, plasma) and 2.39 L/kg in “Rat IV pharmacokinetics” (setting [5]). Moreover, the clearance is 198 mL/min/kg in data set [2] (C57Bl, IV 1 mg/kg, plasma) and 105 mL/min/kg in the data set “Rat IV pharmacokinetics” (setting [5]). Further, the AUCall is given as 200 h ∗ ng/mL in data set [2] (IV 1 mg/kg, brain); 84 h ∗ ng/mL in data set [2] (IV 1 mg/kg, plasma); 189 h ∗ ng/mL in data set [4] (mouse, PO 5 mg/kg, brain); 89 h ∗ ng/mL in data set [4] (mouse, PO 5 mg/kg, plasma); 158 h ∗ ng/mL in “Rat IV pharmacokinetics” (IV 1 mg/kg). For the same compound, the “Time of Cmax” value in data set [2] (IV bolus, plasma) turned out to be 5 min. Besides, in data set [3] (100 mg PST-001/kg powdered food), the “continuous (steady state) concentration in the brain” value came to 1.25 µmol/g. In data set [3] (twice-a-day administration in the animal food of 10 mg/kg), the “steady state brain concentration” value is 150 ng/mL. In addition, the “steady state plasma level” value in data set [3] (twice-a-day administration in the animal food of 10 mg/kg, 10 mg/kg) is 76 ng/mL and 0.25 μM. Moreover, the Kp in data set [4] (male, C57BL/6, mouse, brain, 5 mg/kg, at Tmax after PO administration, read-out: brain level as share of the plasma level) turned out to be 0.5.
